Reference: article PMC4481167, “The primary pathway for lactate oxidation in Desulfovibrio vulgaris” (Frontiers in Microbiology, 2015)

Biological target: T1, PFOR (DVU3025, por) (Nitratidesulfovibrio vulgaris, UniProt Q726T1)
T1 construct: native, untagged; in-gel activity band from crude extract identified by LC-MS/MS; homo-octamer (cited)
Assay: in-gel activity stain (methyl viologen), band identified by LC-MS/MS
Type: biochemical
Conditions: 20 mM pyruvate, 0.1 mM CoA, 2 mM methyl viologen, 16 mM dithioerythritol, 50 mM Tris-HCl pH 8.5, anaerobic

T1 sequence (Q726T1 1-1215): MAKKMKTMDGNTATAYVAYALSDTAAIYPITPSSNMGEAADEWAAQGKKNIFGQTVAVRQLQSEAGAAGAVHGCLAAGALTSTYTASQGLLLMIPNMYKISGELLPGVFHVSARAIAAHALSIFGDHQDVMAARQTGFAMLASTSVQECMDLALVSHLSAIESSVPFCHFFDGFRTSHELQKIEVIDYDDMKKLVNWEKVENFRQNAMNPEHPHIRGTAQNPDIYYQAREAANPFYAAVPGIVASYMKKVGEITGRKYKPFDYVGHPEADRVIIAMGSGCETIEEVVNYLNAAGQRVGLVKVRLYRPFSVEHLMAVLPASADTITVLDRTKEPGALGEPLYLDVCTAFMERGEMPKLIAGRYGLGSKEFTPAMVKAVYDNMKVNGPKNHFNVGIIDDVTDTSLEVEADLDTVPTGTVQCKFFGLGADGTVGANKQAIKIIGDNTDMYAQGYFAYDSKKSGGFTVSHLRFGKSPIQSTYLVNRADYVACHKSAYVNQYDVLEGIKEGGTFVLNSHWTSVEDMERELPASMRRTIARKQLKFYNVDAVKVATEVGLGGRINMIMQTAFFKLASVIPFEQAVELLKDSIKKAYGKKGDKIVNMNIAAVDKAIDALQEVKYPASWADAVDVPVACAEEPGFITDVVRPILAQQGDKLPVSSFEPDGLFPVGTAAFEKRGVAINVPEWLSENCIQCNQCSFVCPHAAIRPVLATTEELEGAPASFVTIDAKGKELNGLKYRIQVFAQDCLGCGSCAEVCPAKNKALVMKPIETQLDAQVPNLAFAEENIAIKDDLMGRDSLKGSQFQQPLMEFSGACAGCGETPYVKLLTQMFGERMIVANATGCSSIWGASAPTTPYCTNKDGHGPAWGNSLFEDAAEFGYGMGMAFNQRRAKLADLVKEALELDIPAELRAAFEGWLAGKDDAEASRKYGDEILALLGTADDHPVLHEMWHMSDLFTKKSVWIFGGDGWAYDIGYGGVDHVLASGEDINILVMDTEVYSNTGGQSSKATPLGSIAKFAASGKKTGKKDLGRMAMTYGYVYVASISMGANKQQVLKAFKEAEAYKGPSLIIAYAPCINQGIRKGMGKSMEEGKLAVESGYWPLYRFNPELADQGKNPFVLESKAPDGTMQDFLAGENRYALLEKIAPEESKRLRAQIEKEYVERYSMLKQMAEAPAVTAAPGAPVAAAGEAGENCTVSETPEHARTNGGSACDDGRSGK

Structure (SMILES) | in-gel activity stain (methyl viologen), band identified by LC-MS/MS
CC(C)(COP(=O)(O)OP(=O)(O)OC[C@H]1O[C@@H](n2cnc3c(N)ncnc32)[C@H](O)[C@@H]1OP(=O)(O)O)[C@@H](O)C(=O)NCCC(=O)NCCS [CoA] | Two bands were stained with methyl viologen in the presence of pyruvate and CoA
CC(=O)C(=O)O [pyruvate] | Two bands were stained with methyl viologen in the presence of pyruvate and CoA
